Results: PMC6736360, “P-Glycoprotein–Mediated Efflux Reduces the In Vivo Efficacy of a Therapeutic Targeting the Gastrointestinal Parasite Cryptosporidium” (The Journal of Infectious Diseases, 2019)
Read-outs that look alike come from different tables or passages of the source. Values belong to the compound of their own block, whether it stands above or below them.

Legend:
[1] = test system: Cryptosporidium parvum; test: C. parvum growth inhibition, nonpolarized HCT-8 coculture assay; assay type: cell-based
From the text: Information regarding C. parvum growth inhibition by BKIs, the hollow fiber model, liquid chromatography–tandem mass spectrometry (LC-MS/MS) methods, and the interferon γ (IFN-γ) knockout (KO) mouse model of C. parvum infection has been described in detail previously [[15], [20–23]]. Information on BKI permeability, LC-MS/MS quantification of elacridar, and quantification of Cryptosporidium by polymerase chain reaction analysis is described in the Supplementary Materials. Unless noted otherwise, statistical significance was determined with an unpaired Student t test, using a significance level of 0.05.
To evaluate the potential impact of P-gp efflux on BKI1318 in vitro efficacy, in vitro assays with polarized and nonpolarized HCT-8 cells were evaluated. The nonpolarized HCT-8 coculture assay to screen anti-Cryptosporidium drug candidates has been previously reported by us in detail. […] Based on the reported elacridar half maximal inhibitor concentration for the inhibition of P-gp, the P-gp activity was predicted to be reduced with both elacridar concentrations. […] Elacridar alone had no effect on C. parvum levels.

[2] = molecular target: T1, P-gp (Homo sapiens, UniProt P08183); test: Caco-2 P-gp efflux assay +/- valspodar; assay type: in vitro ADME; conditions: Caco-2
T1 construct: endogenous in cells; host or cells: Caco-2 cells (clone C2BBe1, ATCC); assay run by Absorption Systems LP
From the text: Given the well-known role of P-gp in the efflux of many diverse drugs, the adenosine triphosphate–binding cassette (ABC) transporter was specifically chosen for initial studies, to identify the transporter responsible for BKI1318’s relatively low Papp. A Caco-2 system with overexpression of P-gp was used to verify the role of P-gp in BKI1318 transport (Supplementary Table 2). […] It should be noted that this experiment characterized the importance of P-gp with a single concentration of BKI1318. The kinetics of BKI1318 transport mediated by P-gp are still unknown, and it is not clear how the fraction of absorption mediated by P-gp transport will change with different concentrations of BKI1318.
(§1) To ensure no damage was inflicted to the cell monolayers during the flux period, lucifer yellow flux was also measured post-experimentally for each monolayer. To determine whether BKIs 1294, 1369, and 1318 were substrates of P-gp in vitro, P-gp efflux was characterized using the Caco-2 permeability assay protocol with a few modifications. The dosing solution concentration was 5 μM of BKI in the assay buffer +/- 1 μM valspodar. Cells were first pre-incubated for 30 minutes with HBSS containing +/- 1 μM valspodar. Cell monolayers were dosed on the apical side (A?B) or basolateral side (B?A), and incubated at 37°C with 5% CO2 in a humidified incubator. Samples were taken from the donor and receiver chambers at 120 minutes. Each determination was performed in duplicate.

[3] = test system: Cryptosporidium; set-up: method as in PMID 28329187; conditions: cited from earlier work
[4] = test system: C. parvum; set-up: method as in PMID 28329187; conditions: previously published study; cited from earlier work
[5] = In vitro solubility at pH 2 and 6.5; assay type: physicochemical; conditions: pH 2, represents stomach; read-out: Solubility (pH 2)
Method: Figure 1. Structures, in vitro efficacy, and physicochemical properties of bumped kinase inhibitors (BKIs). […] Solubilities for each BKI were measured at pH 2 and 6.5, to represent the stomach and small intestinal environments, respectively. The human effective permeability (Peff) was predicted as described in Materials and Methods.

[6] = Caco-2 trans-well apparent permeability assay; assay type: in vitro ADME; conditions: human, pH 7.4
Method: To initially characterize the permeability of BKIs 1294, 1369, and 1318, the software MedChem Designer (Simulations +, Lancaster, CA) was used to predict the Peff. The in vitro apparent permeability (Papp) was carried out by Absorption Systems LP (Exton, PA) with a Caco-2 trans-well assay. Caco-2 cells (clone C2BBe1) were obtained from American Type Culture Collection (Manassas, VA) were grown to confluence on collagen-coated, microporous membranes in 12-well assay plates. The permeability assay buffer was Hanks’ balanced salt solution (HBSS) containing 10 mM HEPES and 15 mM glucose at a pH of 7.4. The buffer in the receiver chamber also contained 1% bovine serum albumin. The dosing solution concentration was 5 µM BKI in assay buffer, and the cell monolayers were dosed on the apical side (A?B) or basolateral side (B?A) and incubated at 37°C with 5% CO2 in a humidified incubator. After 120 minutes, samples were taken from the donor and receiver chambers in duplicate. The Papp was calculated with equation (1) and the percent recovery with equation (2).
Papp = (dCr/dt) × Vr/(A × CA) (1)
Percent Recovery = 100 × ((Vr × Cr^final) + (Vd × Cd^final))/(Vd × […]) (2)
where dCr/dt is the slope of the cumulative concentration in the receiver compartment versus time in µM s^-1; Vr is the volume of the receiver compartment in cm^3; Vd is the volume of the donor compartment in cm^3; A is the area of the insert (1.13 cm^2 for 12-well); CA is the average of the nominal dosing concentration and the measured 120 minute donor concentration in µM; CN is the nominal concentration of the dosing solution in µM; Cr^final is the cumulative receiver concentration in µM at the end of the incubation period; Cd^final is the concentration of the donor in µM at the end of the incubation period.
as §1

[7] = test system: C. parvum; test: Hollow fiber in vitro Cryptosporidium culture with polarized HCT-8 cells; assay type: cell-based, Cryptosporidium parvum
Method: C. parvum was cultured using a hollow fiber bioreactor modified for evaluation of potential chemotherapeutic compounds [[21–23]]. Briefly, the system used a 20-kD MWCO polysulfone fiber cartridge (FiberCell Systems, Frederick, MD). HCT-8 cells were grown on the outer surface of the fibers (extracapillary space), and reservoirs were used to provide nutrients to the cells. When the glucose concentration decreased to at least 2 g/L, the extracapillary space was inoculated with 10^6C. parvum (Iowa isolate, Bunch Grass Farms, Deary, ID). […] Compound concentration was reduced over time by the flow of medium through the extracapillary and intracapillary spaces. Samples were removed from the extracapillary space once per day for evaluation of parasite numbers.
C. parvum growth was determined by analysis of the amount of C. parvum 18S-rRNA present and compared to the HCT-8 18S-rRNA as previously described^3. Briefly this was performed by centrifugation at 14,000 x g for 5 min of 0.5 mL samples collected from the extracapillary space (ECS). The pellet was resuspended in 100 µL of iScript buffer and subject to 6-freeze/thaw cycles comprising 1 min in liquid nitrogen followed by 1.5 min at 70 °C. The lysate was collected by centrifugation at 16,162 x g for 5 min, and the RNA purified according to the manufacturer’s instructions (iScriptTM, RT-qPCR sample preparation kit, Bio-Rad Laboratories). C. parvum was enumerated by quantitating the Cp18S-rRNA using the following specific forward and reverse primers - Cp18S-995F: 5’-[…]-3’ and Cp18S-1206R: 5’-[…]-3’ and compared to the human Hs18S-rRNA using the following primer sets - Hs18S-F1373: 5’-[…]-3’ and Hs18S-R1561: 5’-[…]-3’. The amount of 18S-rRNA was determined using 5 ng samples by RT-qPCR as described the manufacturer instructions using a Luna Universal One-Step® RT-qPCR kit (New England Biologics) and a Quant Studio 6 Flex 44 instrument. The cell number is calculated from the CT means using a set of standards prepared from 10^4, 10^5, and 10^6 C. parvum oocysts and compared to 10^4, 10^5, and 10^6 HCT-8 cells.

[8] = test system: C. parvum; test: IFN-γ KO mouse model of Cryptosporidium infection; assay type: in vivo, mice; conditions: IFN-γ KO mice
Method: Efficacy in female IFN-γ KO mice (B6.129S7-Ifngtm1Ts/J; Jackson Laboratories) aged 8–10 weeks was evaluated as previously described. Beginning on day 6 after infection, mice were dosed with 30 mg/kg BKI1318 suspended in 0.2 mL of vehicle, 15 mg/kg elacridar in 0.1 mL of vehicle followed 15 minutes later by 30 mg/kg BKI1318 in 0.1 mL of vehicle, or 0.2 mL of vehicle only once daily for 5 days. Fecal specimens were collected daily from each group and weighed. Each fecal sample was checked for luminescence on the day of collection, and the number of relative light units was determined and normalized to fecal sample weights.

[9] = Mouse gastrointestinal tissue pharmacokinetics; assay type: in vivo, mice; conditions: mouse, oral; for AUC(0-t): read-out: AUC0-12; for Cmax: read-out: Observed Cmax; for Tmax: read-out: Tmax
Method: At multiple time points following BKI1318 administration, mice were euthanized, and the GI tract was separated into segments corresponding to the duodenum, jejunum, ileum, and cecum/colon. […] At 0.5, 1, 2, 4, 8, and 12 hours, three mice in each group were sacrificed by cervical dislocation, and the duodenum, jejunum, ileum, and cecum/ascending colon were immediately collected. Each section of the GI tract was flushed with Dulbecco's phosphate-buffered saline, weighed, and placed in storage at -80°C. On the day of homogenization, 0.9% NaCl was added to each sample to achieve 200 mg/mL tissue concentration. Samples were homogenized using a handheld motorized homogenizer (Fisher Scientific, Waltham, MA) on ice and stored at -20°C until extraction and analysis. To report tissue concentrations, 1 gram of tissue was estimated to be 1 mL of volume.

[10] = cecum/colon, elacridar in Cecum/Colon
[11] = duodenum, elacridar in Duodenum

T1 sequence (P08183 whole entry): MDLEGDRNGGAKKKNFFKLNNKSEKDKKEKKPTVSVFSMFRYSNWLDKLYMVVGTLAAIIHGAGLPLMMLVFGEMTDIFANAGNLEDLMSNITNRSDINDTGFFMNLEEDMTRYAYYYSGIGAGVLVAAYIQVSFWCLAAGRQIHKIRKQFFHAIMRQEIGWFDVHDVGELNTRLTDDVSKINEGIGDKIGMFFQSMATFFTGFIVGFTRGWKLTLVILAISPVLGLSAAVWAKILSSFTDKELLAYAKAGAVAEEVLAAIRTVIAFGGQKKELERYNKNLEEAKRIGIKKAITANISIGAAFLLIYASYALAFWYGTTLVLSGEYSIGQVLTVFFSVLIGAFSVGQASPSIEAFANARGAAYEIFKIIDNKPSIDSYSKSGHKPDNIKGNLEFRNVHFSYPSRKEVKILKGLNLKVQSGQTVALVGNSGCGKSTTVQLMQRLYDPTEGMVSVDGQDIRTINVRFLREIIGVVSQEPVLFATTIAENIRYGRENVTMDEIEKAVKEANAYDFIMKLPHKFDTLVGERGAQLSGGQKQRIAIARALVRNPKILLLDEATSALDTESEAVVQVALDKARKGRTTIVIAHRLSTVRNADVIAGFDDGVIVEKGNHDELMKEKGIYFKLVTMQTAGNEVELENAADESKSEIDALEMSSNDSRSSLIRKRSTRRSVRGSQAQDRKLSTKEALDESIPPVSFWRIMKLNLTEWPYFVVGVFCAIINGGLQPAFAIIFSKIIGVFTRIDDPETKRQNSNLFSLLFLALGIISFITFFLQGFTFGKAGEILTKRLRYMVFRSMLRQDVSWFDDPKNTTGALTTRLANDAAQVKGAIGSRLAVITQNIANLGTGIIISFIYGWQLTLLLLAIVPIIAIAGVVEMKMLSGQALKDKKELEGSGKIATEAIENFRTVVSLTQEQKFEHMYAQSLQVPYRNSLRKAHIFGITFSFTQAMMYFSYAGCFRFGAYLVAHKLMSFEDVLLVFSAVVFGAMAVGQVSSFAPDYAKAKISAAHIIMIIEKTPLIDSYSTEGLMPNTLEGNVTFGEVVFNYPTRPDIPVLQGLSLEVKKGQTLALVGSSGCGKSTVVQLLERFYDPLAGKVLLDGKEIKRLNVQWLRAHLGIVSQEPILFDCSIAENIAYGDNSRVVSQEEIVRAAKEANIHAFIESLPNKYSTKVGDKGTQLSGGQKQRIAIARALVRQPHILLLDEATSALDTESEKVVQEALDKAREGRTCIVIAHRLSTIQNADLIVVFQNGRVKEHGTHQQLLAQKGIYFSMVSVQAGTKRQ

EC50 ([1]; Cryptosporidium parvum, HCT-8, in vitro, read-out: C. parvum EC50): 2700 nM
P-gp Substrate Classification [2]: Negative
solubility [5]: > 100 µM
recovery at 120 min, 5 µM ([6]; Caco-2 assay, A→B for BKI 1294, read-out: Percent recovery): 62%
Papp A→B at 120 min, 5 µM ([6]; Caco-2, 5 µM, 120 minutes): 12.7 ×10⁻⁶ cm/s
Papp B→A at 120 min, 5 µM ([6]; Caco-2, 5 µM, 120 minutes): 22.6 ×10⁻⁶ cm/s
Structure (SMILES): CCOc1ccc2cc(-c3nn(CC4CCN(C)CC4)c4ncnc(N)c34)ccc2c1 [BKI1294]
Efficacy in neonatal mouse model of Cryptosporidium infection [3]: efficacious
C. parvum reduction in mouse model of cryptosporidiosis [4]: > 2 log
Reduction of C. parvum levels over the course of the study ([7]; hollow fiber model, polarized HCT-8 cells): > 3 orders of magnitude
Reduction in C. parvum level by 24 hours after the final dose, on day 4 ([7]; hollow fiber, once per day for 4 days, BKI1294 80 µM, BKI1369 40 µM): > 6 log

Papp A→B at 120 min, 5 µM ([6]; Caco-2, 5 µM, 120 minutes): 23.2 ×10⁻⁶ cm/s
Structure (SMILES): CC(C)NCC(O)COc1cccc2ccccc12 (stereo not drawn) [Propranolol, reference compound]

P-gp Substrate Classification [2]: Positive
Structure (SMILES): C[C@H]1O[C@@H](O[C@H]2[C@@H](O)C[C@H](O[C@H]3[C@@H](O)C[C@H](O[C@H]4CC[C@@]5(C)[C@H](CC[C@@H]6[C@@H]5C[C@@H](O)[C@]5(C)[C@@H](C7=CC(=O)OC7)CC[C@]65O)C4)O[C@@H]3C)O[C@@H]2C)C[C@H](O)[C@@H]1O [digoxin, reference compound]

AUC(0-t) [9, 10]: 12.6 ± 8.5 µM·h
Cmax [9, 10]: 3.3 ± 3.1 µM
Tmax [9, 10]: 6 h
AUC(0-t) [9, 11]: 118 ± 4.9 µM·h
Cmax [9, 11]: 61.2 µM
Tmax [9, 11]: 0.6 h
AUC(0-t) ([9]; ileum, elacridar in Ileum): 170 ± 45.7 µM·h
Cmax ([9]; ileum, elacridar in Ileum): 35.2 µM
Tmax ([9]; ileum, elacridar in Ileum): 1.7 h
AUC(0-t) ([9]; jejunum, elacridar in Jejunum): 104 ± 21.4 µM·h
Cmax ([9]; jejunum, elacridar in Jejunum): 32.6 µM
Tmax ([9]; jejunum, elacridar in Jejunum): 0.6 h
Structure (SMILES): COc1cc2c(cc1OC)CN(CCc1ccc(NC(=O)c3cccc4c(=O)c5cccc(OC)c5[nH]c34)cc1)CC2 [elacridar, reference compound]
Effect on C. parvum levels ([1]; nonpolarized HCT-8 cells, compound alone): no effect
Effect on Cryptosporidium infection, administered alone [8]: no effect
Effect on C. parvum levels/growth ([7]; hollow fiber model, compound alone, 80 µM once daily): no effect
